Assay results taken from patent US20060183773A1, “Uses of methylphenidate derivatives” (priority 2005, published 2006).

Assays:
Type in all cases: cell-based, human
c-Jun = c-Jun in VEGF-treated HUVECs, TransAM AP-1 assay; conditions: for Mean OD 450 nm (c-Jun): control 0.204, VEGF only 0.261
Experimental: The flasks were incubated overnight at 37° C., 5% CO2 After this incubation, vascular endothelial growth factor (VEGF) (obtained from Sigma) was added to give a final concentration 10 ng/ml, and the flasks were incubated for an additional 30 minutes.
The amount of c-Jun was determined using a TransAM™ AP-1 Family Transcription Factor Assay Kit and a Nuclear Extract Kit from Active Motif North America, Carlsbad, Calif., according to manufacturer's instructions. Briefly, a nuclear extract of the cells was prepared using the Nuclear Extract Kit. Then, the nuclear extract was added to the wells of a 96-well plate in which oligonucleotide containing a TPA-responsive element (TRE) was immobilized. Activator protein-1 (AP-1) dimers contained in the nuclear extract were bound to this oligonucleotide and were detected using an antibody specific for c-Jun. A secondary antibody conjugated to horseradish peroxidase (HRP) was next added to provide a colorimetric readout that was quantified by spectrophotometry (measurement at 450 nm).

[1] = system: peripheral blood lymphocytes (PBL); assay: PBL proliferation, Promega cell titer assay; conditions: for proliferation of PBL (OD at 530 nm): Dex 10 μM; for proliferation of PBL stimulated with PHA (OD at 530 nm): donor GR283
Experimental: Whole blood was drawn from GR283, a human volunteer with known allergies, into a glass vacutainer tube containing no anticoagulant. This blood was allowed to clot, and the serum was removed by centrifugation and then heat inactivated by placing it in a water bath at 56° C. for 30 minutes. Whole blood from GR283 was also drawn into a glass vacutainer tube containing heparin and used for peripheral blood lymphocytes (PBL) isolation as follows. Whole blood was layered over room temperature Histopaque 1077 solution and centrifuged at 2000 rpm for 15 minutes at room temperature. Cells at the plasma-Histopaque interface were then removed and washed with culture medium (IMDM medium with 10% heat-inactivated GR283 serum plus 1% penicillin/streptomycin) at 37° C.
Then, GR283's PBL in culture medium were added to the wells to give a final concentration of 150,000 cells per well, and the plates were incubated at 37° C., 5% CO2 for 24 hours. After this incubation, phytohemagglutinin (PHA) in culture medium was added to give final concentrations of 2 μg/ml, 5 μg/ml or 20 μg/ml, final total volume of 200 μl/well, and the cells were incubated for an additional 72 hours at 37° C., 5% CO2. All cultures were performed in triplicate.
Cell proliferation was assayed by adding 20 μl of Promega cell titer solution to each well and incubating the plate for an additional 4 hours. Promega cell titer solution is a solution containing a tetrazolium dye that is reduced by living cells to a formazan dye, and this reduction is proportional to the number of living cells present in the well. After the 4-hour incubation, the optical density (OD) at 530 nm of each well was measured. The OD at 530 nm for blank wells containing no cells was subtracted from the OD of the experimental wells.
Then, GR467's PBL in culture medium were added to the wells to give a final concentration of 150,000 cells per well, and the plates were incubated at 37° C., 5% CO2 for 24 hours. After this incubation, PHA was added to give a final concentration of 2 μg/ml, final total volume of 200 μl/well, and the cells were incubated for an additional 72 hours at 37° C., 5% CO2. All cultures were performed in triplicate.
Then, GR191's PBL in culture medium were added to the wells to give a final concentration of 150,000 cells per well, and the plates were incubated at 37° C., 5% CO2 for 24 hours. After this incubation, PHA was added to give final concentrations of 2 μg/ml and 5 μg/ml, final total volume of 200 μl/well, and the cells were incubated for an additional 72 hours at 37° C., 5% CO2. All cultures were performed in triplicate.

IL-8 = IL-8 release by TNFα-stimulated HUVECs, ELISA; conditions: for Mean IL-8: 18 hours, TNFα + water 35572; for IL-8 release stimulated by TNFα (in words): HUVECs, Cpd II 1-30 μg/ml, MP 15 μg/ml, Dex and LY 294002 10 μM
Experimental: Passage 4 HUVECs, human source lot number 8710 (obtained from ATCC), were put into the wells of a 24-well tissue culture plate at 5,000 cells/well in EGM-2 medium (obtained from Cambrex) and cultured for 72 hours at 37° C. and 5% CO2. […] After incubation for 1 hour at 37° C. and 5% CO2, TNFα (obtained from Pierce) was added to give a final concentration of 10 ng/ml, and the cells were incubated for an additional 18 hours at 37° C. and 5% CO2. After this incubation, the supernatants were collected, and the amount of IL-8 in the supernatants determined by ELISA as described in Example 4.

NFκB = assay: Activated NFκB in VEGF-treated HUVECs, TransAM assay; conditions: for Mean OD 450 nm (NFκB): control 0.070, VEGF only 0.111
Experimental: Passage 5 HUVECs, human source lot number 8750 (obtained from ATCC), were grown to confluence in 25 cm^2 flasks in EGM-2 medium. The following additives were added to the flasks (total volume of 5 ml/flask) in EGM-2 medium containing 2% FCS, GA1000 (gentamycin), heparin and ascorbic acid (all from Cambrex): 1 μg/ml of the compound of formula II (Cpd II); 5 μg/ml Cpd II; 15 μg/ml of Cpd II; 15 μg/ml methylphenidate (MP); or 10 μM LY 294002. The flasks were incubated overnight at 37° C., 5% CO2 After this incubation, vascular endothelial growth factor (VEGF) (obtained from Sigma) was added to give a final concentration 10 ng/ml, and the flasks were incubated for an additional 30 minutes.
Then, the amount of NFκB was determined using a TransAM™ NFκB p65/NFκB p50 Transcription Factor Assay Kit and a Nuclear Extract Kit from Active Motif North America, Carlsbad, Calif., according to the manufacturer's instructions. Briefly, a nuclear extract of the cells was prepared using the Nuclear Extract Kit. Then, the nuclear extract was added to the wells of the 96-well plate of the TransAM™ kit. Oligonucleotide containing an NFκB consensus binding site was immobilized in the wells, and the activated NFκB contained in the nuclear extract was bound to the oligonucleotide. Then, an antibody directed against the NFκB p65 or p50 subunit was added, and the NFκB complex bound to the oligonucleotide was detected. A secondary antibody conjugated to horseradish peroxidase (HRP) was next added to provide a colorimetric readout that was quantified by spectrophotometry (measurement at 450 nm).

Compound | Mean OD 450 nm (c-Jun) (c-Jun; VEGF 10 ng/ml + 1 μg/ml) | Mean OD 450 nm (c-Jun) (c-Jun; VEGF 10 ng/ml + 5 μg/ml) | Mean OD 450 nm (c-Jun) (c-Jun; VEGF 10 ng/ml + 15 μg/ml) | amount of c-Jun (in words) (c-Jun; VEGF, 15 μg/ml and 5 μg/ml) | proliferation of PBL (OD at 530 nm) ([1]; donor GR191, unstimulated and PHA 2, 5 μg/ml, Cpd II 5, 15, 25, 50 μg/ml, MP 50 μg/ml, FIGS. 5A-B) | proliferation of PBL stimulated with PHA (OD at 530 nm) ([1]; PHA 2, 5, 20 μg/ml, Cpd II 5, 15, 50 μg/ml, Dex 10 μg/ml, FIGS. 1A-C) | proliferation of PBL (OD at 530 nm) ([1]; donor GR467, unstimulated and 2 μg/ml PHA, Cpd II 5, 15, 25 μg/ml, MP 15 μg/ml, FIG. 2) | Mean IL-8 (IL-8; 10 ng/ml TNFα + 1 μg/ml) [pg/mL] | Mean IL-8 (IL-8; 10 ng/ml TNFα + 5 μg/ml) [pg/mL] | Mean IL-8 (IL-8; 10 ng/ml TNFα + 10 μg/ml) [pg/mL] | Mean IL-8 (IL-8; 10 ng/ml TNFα + 15 μg/ml) [pg/mL] | Mean IL-8 (IL-8; 10 ng/ml TNFα + 30 μg/ml) [pg/mL] | IL-8 release stimulated by TNFα (in words) (IL-8) | Mean OD 450 nm (NFκB) (NFκB; VEGF 10 ng/ml + 1 μg/ml) | Mean OD 450 nm (NFκB) (NFκB; VEGF 10 ng/ml + 5 μg/ml) | Mean OD 450 nm (NFκB) (NFκB; VEGF 10 ng/ml + 15 μg/ml) | amount of activated NFκB (in words) (NFκB; VEGF, 15 μg/ml and 5 μg/ml) | proliferation of PBL stimulated with PHA (OD at 530 nm) ([1]; methylphenidate at the other dose / PHA combinations) | proliferation of PBL stimulated with PHA (OD at 530 nm) ([1]; methylphenidate highest dose (50 μg/ml), lowest PHA dose (2 μg/ml))
COC(=O)C(c1ccc(-c2ccccc2)cc1)C1CCCCN1 (centres unmarked) [Cpd II] | 0.221 ± 0.008 | 0.185 ± 0.025 | 0.204 ± 0.010 | completely eliminated the increase in the amount of c-Jun | significantly inhibited the proliferation of PBL, both unstimulated and stimulated with PHA | significantly inhibited the proliferation of PBL stimulated with PHA in a dose-dependent manner | significantly inhibited the proliferation of PBL, both unstimulated and stimulated with PHA | 53657 ± 3935.18 | 34482 ± 2127.22 | 22050 ± 727.27 | 20817 ± 674.63 | 4829.8 ± 214.13 | decreased IL-8 release stimulated by TNFα in a dose-dependent manner | 0.097 ± 0.013 | 0.065 ± 0.010 | 0.060 ± 0.008 | reduced the amount of activated NFκB back to basal levels |  | 
COC(=O)C(c1ccccc1)C1CCCCN1 (centres unmarked) [methylphenidate] |  |  | 0.230 ± 0.016 |  |  |  |  |  |  |  | 30183 ± 3448.01 |  | slightly decreased IL-8 release |  |  | 0.093 ± 0.011 |  | did not significantly reduce the proliferation of the PHA-stimulated PBL | showed a significant effect at its highest dose and the lowest PHA dose
